Measurements: US20220119446A1, “BIOMARKERS AND TREATMENT OF NEURONAL INJURY AND NEURODEGENERATION” (Board of Supervisons of Louisiana State University and …, priority 2018, published 2022)
“Also recorded” adds a separate entry of the source. * marks the point of attachment. Boc = CC(C)(C)OC(=O)*

Columns and labels:
rats subjected to MCAo = test: Transient MCAo: MRI of lesion volume; type: in vivo; conditions: rat, 2 h MCAo, Box5 IV 1 h later, day 7
Procedure: The right MCA can be occluded for 2 h by intraluminal filament, as described previously (Belayev et al. 2011). Briefly, the right common carotid artery (CCA) and external carotid artery (ECA) can be exposed through midline neck incision, and then completely isolated from the surrounding nerves. The occipital branches of the ECA and pterygopalatine artery can be ligated. A 4-cm of 3-0 nylon filament, coated with poly-L-lysine can be advanced to the origin of MCA through the proximal ECA via internal carotid artery. The filament can be inserted 20 to 22 mm from the bifurcation of the CCA, according to the animal's body weight. The neck incision can then be closed, and the rats can be returned to their cages. After about 2 h of MCAo, the rats can be re-anesthetized with the same anesthetic combination and the intraluminal filament can be gently removed. […]
In embodiments, high-resolution ex vivo magnetic resonance imaging (MRI) is performed on 4% paraformaldehyde-fixed brains at each time point (days 1, 3 and 7) using an 11.7T Bruker Advance 8.9 cm horizontal bore instrument equipped with an 89 mm (ID) receiver coil (Bruker Biospin, Billerica, Mass., USA). T2-weighted images (T2WI), diffusion weighted images (DWI), 3D volumes and apparent diffusion coefficient (ADC) maps can be collected and analyzed as previously described and known in the art (Obenaus et al. 2011). […]

Wnt5a = test: Transient MCAo: Wnt5a protein in plasma; type: in vivo; conditions: rat MCAo, days 1, 3 and 7 post-surgery
Procedure: In various exemplary embodiments, docosahexaenoic acid (DHA; 5 mg/kg, Cayman, Ann Arbor, Mich., USA), Box5 (1 mg/kg, Millipore-Sigma, Burlington, Mass.) or vehicle (0.9% saline) is administered intravenously into the femoral vein at a constant rate over 3 min using an infusion pump at 3 h after onset of MCAo. In embodiments, for western-blot study, rats are sacrificed on days 1, 3, or 7; for real-time PCR study, rats are sacrificed on days 1, 2, or 3.
A, Timeline of MCAo. DHA, Box5 or saline were administered at 1 h after 2 h of MCAo and rats were sacrificed on days 1, 2, 3 or 7. B, Effect of DHA on neurological recovery. Total score (normal score=0, maximal deficit=12), tactile placing (dorsal, lateral, proprioceptive reactions; normal score=0, maximal deficit=2) after MCAo. DHA or saline was administered at 1 h after 2 h of MCAo and rats sampled on days 1, 2, 3 or 7. […] C, Total neurological score at days 1, 3 and 7; D, MRI quantification at day 7 of the lesion volume depicting total, core and penumbra and; E, representative coronal sections showing T2 weighted image (T2WI), the defined core and penumbra region (red and blue, respectively) in the second column; and a 3D reconstruction of the lesion. […] J, Quantification of Wnt5a and NF-κB linked gene expression in MCAo. […] The mRNA were measured using SYBR green RT-PCR. […]

What does the source list for “t-Boc-NH-Met-Asp-Gly-Cys-Glu-Leu-CO2H (Boc-MDGCEL-OH) [Box5]”?
MRI lesion (infarct) volume (rats subjected to MCAo): steep decreased in the infarcted volume; also recorded: resembling DHA treatment; also recorded: reduces stroke size; also recorded: decreased volume of brain damage; plasma (blood) Wnt5a protein (Wnt5a): failed to reduce the plasma Wnt5a content; also recorded: did not affect the levels of Wnt5a; also recorded: did not affect Wnt5a abundance
